One data set has as its target CYP2D6 (Homo sapiens, UniProt P10635). The following applies: CYP2D6‐dependent dextromethorphan O‐demethylation; ref 35 von Moltke et al.; cited from earlier work.
Another data set deals with T1, CYP1A2 (Homo sapiens, UniProt P05177).
T1 sequence (P05177 1-516): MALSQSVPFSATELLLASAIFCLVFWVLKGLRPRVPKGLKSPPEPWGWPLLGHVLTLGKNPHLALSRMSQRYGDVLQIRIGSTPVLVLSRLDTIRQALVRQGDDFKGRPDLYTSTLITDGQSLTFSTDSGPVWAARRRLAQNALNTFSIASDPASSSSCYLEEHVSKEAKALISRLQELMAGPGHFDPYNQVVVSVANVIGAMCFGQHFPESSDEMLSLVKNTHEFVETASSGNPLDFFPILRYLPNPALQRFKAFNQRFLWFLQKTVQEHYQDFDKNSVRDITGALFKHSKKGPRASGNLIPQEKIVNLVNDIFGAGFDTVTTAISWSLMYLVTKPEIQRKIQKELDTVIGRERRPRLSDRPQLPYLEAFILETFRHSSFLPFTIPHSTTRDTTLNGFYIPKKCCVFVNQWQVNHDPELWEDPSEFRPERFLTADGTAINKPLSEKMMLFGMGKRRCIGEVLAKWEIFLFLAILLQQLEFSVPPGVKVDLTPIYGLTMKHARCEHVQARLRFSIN
Conditions: ref 35 von Moltke et al.; cited from earlier work.

Another data set addresses CYP2C9 (Homo sapiens, UniProt P11712). The following applies: ref 35 von Moltke et al.; cited from earlier work.
In a further data set the test system is CYP3A. Conditions: ref 35 von Moltke et al.; cited from earlier work.
Another data set has as its system CYP1A2 mRNA. Kind of data set: CYP450 induction in cultured human hepatocytes, mRNA by qRT-PCR. The following applies: human, hepatocytes, 3 days, 50 μM. Format: cell-based. The procedure: Each PCR was performed in triplicate.

SMILES strings stand for the structures.

Chain of CYP2D6 (P10635 whole entry): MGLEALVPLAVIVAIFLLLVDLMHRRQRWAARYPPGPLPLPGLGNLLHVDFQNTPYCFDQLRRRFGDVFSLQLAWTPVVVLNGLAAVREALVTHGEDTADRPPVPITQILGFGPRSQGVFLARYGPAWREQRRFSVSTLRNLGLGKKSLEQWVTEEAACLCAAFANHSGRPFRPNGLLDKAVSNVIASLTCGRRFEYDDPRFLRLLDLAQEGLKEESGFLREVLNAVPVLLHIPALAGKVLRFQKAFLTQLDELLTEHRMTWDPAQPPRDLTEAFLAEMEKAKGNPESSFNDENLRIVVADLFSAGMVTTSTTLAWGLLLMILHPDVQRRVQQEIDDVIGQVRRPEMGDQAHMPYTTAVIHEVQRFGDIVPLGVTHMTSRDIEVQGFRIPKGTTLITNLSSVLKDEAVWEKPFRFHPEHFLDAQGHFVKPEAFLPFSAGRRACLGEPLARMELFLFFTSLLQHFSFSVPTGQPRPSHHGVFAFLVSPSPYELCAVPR
Chain of CYP2C9 (P11712 whole entry): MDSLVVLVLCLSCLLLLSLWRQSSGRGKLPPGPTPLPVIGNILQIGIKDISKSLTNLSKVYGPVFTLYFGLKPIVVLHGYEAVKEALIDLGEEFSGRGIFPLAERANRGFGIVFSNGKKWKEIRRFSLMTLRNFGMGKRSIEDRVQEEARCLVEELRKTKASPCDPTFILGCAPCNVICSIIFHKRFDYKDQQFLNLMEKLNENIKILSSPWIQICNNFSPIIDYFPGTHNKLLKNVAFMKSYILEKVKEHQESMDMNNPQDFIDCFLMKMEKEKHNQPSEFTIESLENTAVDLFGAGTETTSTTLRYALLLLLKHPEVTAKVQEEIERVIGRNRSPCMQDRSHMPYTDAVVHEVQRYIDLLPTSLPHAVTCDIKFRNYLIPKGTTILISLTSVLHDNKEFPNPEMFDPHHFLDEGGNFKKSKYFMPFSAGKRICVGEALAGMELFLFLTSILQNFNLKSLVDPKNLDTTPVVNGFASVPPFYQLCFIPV

`CCN[C@@H](C)Cc1cccc(C(F)(F)F)c1` [D‐FFA]: the IC50 (usually the concentration needed to halve the response being measured) at CYP2D6 is 15.1 µM. Also, the inhibitor potential entry at CYP1A2, on CYP2C9 and in the data set with CYP3A was “weak or negligible inhibitor potential” in each case.

Consider `CCN[C@H](C)Cc1cccc(C(F)(F)F)c1` [L‐FFA], for which the half-maximal inhibitory concentration (IC50) at CYP2D6 was 15.1 µM. The inhibitor potential entry at CYP1A2, on CYP2C9 and with CYP3A was “weak or negligible inhibitor potential” in each case.

For the compound `COc1ccc2[nH]c([S+]([O-])Cc3ncc(C)c(OC)c3C)nc2c1` (stereo not drawn) [Omeprazole, omeprazole, reference compound], in the data set on CYP1A2 mRNA, the “increase in CYP1A2 mRNA levels” value is recorded as 32.7-52.5 fold.

Source of the values: PMC9124818 (Pharmacology Research & Perspectives, 2022).
